{"source": "patent US12281080B2", "about": "“Quinoline-based compounds and methods of inhibiting CDK8/19” (University of South Carolina, priority 2018, dated 2025)", "key": {"TAOK2": {"target": "TAOK2 (Homo sapiens (Human), UniProt Q9UL54)", "sequence (Q9UL54 whole entry)": "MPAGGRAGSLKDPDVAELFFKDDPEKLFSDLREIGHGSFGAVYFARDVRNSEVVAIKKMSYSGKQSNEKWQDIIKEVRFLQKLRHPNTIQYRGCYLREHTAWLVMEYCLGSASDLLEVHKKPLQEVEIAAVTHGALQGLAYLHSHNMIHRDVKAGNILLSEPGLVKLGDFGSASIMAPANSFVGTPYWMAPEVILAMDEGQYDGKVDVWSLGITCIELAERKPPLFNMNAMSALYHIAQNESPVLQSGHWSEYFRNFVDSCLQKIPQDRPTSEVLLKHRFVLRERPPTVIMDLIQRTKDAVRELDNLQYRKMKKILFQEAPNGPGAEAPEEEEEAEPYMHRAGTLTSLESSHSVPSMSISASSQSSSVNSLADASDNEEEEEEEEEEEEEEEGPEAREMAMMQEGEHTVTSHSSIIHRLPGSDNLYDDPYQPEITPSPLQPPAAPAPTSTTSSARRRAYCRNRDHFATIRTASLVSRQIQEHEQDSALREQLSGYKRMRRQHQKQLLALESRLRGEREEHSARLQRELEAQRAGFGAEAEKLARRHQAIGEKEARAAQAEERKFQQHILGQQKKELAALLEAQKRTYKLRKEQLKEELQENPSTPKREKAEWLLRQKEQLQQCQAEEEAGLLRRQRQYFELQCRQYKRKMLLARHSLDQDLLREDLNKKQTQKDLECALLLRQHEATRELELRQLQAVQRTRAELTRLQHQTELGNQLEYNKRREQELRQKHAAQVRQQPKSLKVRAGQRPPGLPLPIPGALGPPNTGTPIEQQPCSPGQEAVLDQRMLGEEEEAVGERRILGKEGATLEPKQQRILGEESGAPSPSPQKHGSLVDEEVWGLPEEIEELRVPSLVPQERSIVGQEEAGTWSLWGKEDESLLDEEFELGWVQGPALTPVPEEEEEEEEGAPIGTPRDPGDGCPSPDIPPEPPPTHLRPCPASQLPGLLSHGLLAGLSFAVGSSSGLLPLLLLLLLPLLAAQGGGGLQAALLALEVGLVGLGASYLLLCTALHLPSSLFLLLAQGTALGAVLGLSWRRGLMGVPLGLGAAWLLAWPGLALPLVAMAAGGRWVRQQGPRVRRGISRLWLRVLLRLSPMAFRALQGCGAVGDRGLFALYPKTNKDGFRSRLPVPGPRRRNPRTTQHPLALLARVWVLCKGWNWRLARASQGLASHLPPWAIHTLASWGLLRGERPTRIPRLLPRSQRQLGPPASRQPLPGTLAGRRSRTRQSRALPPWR", "assay": "KINOMEscan scanMAX", "type": "binding", "conditions": "2000 nM; read-out: Percent Control"}, "KIT-autoinhibited": {"target": "KIT-autoinhibited (Homo sapiens (Human), UniProt P10721)", "assay": "KINOMEscan scanMAX", "type": "binding", "conditions": "2000 nM; read-out: Percent Control"}, "[1]": {"target": "RPS6KA5(Kin.Dom.2-C-terminal) (Homo sapiens (Human), UniProt O75582)", "assay": "KINOMEscan scanMAX", "type": "binding", "conditions": "2000 nM; read-out: Percent Control"}, "MARK4": {"target": "MARK4 (Homo sapiens (Human), UniProt Q96L34)", "assay": "KINOMEscan scanMAX", "type": "binding", "conditions": "2000 nM; read-out: Percent Control"}, "MKNK1": {"target": "MKNK1 (Homo sapiens (Human), UniProt Q9BUB5)", "assay": "KINOMEscan scanMAX", "type": "binding", "conditions": "2000 nM; read-out: Percent Control"}, "MEK1 (MAP2K1)": {"target": "MEK1 (MAP2K1) (Homo sapiens (Human), UniProt Q02750)", "assay": "KINOMEscan scanMAX", "type": "binding", "conditions": "2000 nM; read-out: Percent Control"}, "BMPR2": {"target": "BMPR2 (Homo sapiens (Human), UniProt Q13873)", "assay": "KINOMEscan scanMAX", "type": "binding", "conditions": "2000 nM; read-out: Percent Control"}, "PAK3": {"target": "PAK3 (Homo sapiens (Human), UniProt O75914)", "assay": "KINOMEscan scanMAX", "type": "binding", "conditions": "2000 nM; read-out: Percent Control"}, "MYO3A": {"target": "MYO3A (Homo sapiens (Human), UniProt Q8NEV4)", "sequence (Q8NEV4 whole entry)": "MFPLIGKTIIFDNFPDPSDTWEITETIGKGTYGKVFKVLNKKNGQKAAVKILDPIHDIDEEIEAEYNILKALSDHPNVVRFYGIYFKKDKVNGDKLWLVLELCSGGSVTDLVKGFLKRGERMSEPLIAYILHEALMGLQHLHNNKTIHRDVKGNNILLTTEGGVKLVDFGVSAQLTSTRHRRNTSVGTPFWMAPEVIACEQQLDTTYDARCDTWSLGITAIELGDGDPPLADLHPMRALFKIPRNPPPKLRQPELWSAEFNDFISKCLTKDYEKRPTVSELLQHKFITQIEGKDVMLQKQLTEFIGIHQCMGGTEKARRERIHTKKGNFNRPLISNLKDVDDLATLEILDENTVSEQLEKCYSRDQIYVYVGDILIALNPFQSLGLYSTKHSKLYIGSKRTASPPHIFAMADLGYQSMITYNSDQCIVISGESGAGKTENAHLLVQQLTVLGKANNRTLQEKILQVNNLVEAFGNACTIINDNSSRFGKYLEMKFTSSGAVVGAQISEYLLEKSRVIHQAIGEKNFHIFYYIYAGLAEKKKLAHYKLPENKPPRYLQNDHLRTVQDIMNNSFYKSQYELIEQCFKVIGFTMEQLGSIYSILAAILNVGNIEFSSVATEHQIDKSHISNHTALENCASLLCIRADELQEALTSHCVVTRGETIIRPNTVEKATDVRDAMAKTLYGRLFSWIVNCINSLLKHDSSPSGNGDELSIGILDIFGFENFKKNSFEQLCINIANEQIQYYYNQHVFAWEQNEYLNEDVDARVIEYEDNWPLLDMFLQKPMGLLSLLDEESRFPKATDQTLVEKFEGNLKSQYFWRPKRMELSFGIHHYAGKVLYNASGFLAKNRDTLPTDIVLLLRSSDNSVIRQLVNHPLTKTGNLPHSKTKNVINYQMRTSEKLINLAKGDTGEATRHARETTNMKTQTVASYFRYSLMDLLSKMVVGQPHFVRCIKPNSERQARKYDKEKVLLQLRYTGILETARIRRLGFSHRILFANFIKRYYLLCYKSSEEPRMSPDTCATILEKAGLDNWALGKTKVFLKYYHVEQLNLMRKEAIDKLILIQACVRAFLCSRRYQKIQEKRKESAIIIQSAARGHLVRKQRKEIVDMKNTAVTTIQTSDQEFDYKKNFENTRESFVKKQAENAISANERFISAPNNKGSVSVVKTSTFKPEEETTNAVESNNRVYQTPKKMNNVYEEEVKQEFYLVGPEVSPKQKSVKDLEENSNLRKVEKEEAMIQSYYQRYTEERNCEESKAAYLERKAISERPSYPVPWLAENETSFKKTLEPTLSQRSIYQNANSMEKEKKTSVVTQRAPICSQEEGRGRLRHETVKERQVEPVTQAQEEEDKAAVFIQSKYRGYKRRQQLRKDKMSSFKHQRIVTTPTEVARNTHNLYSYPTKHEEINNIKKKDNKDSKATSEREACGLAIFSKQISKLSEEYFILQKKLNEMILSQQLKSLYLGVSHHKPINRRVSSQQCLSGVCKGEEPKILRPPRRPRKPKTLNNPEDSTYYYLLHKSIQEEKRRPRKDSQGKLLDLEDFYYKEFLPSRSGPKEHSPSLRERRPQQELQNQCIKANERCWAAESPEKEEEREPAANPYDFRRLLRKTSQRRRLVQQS", "assay": "KINOMEscan scanMAX", "type": "binding", "conditions": "2000 nM; read-out: Percent Control"}, "WEE2": {"target": "WEE2 (Homo sapiens (Human), UniProt P0C1S8)", "assay": "KINOMEscan scanMAX", "type": "binding", "conditions": "2000 nM; read-out: Percent Control"}, "LYN": {"target": "LYN (Homo sapiens (Human), UniProt P07948)", "assay": "KINOMEscan scanMAX", "type": "binding", "conditions": "2000 nM; read-out: Percent Control"}, "IRAK4": {"target": "IRAK4 (Homo sapiens (Human), UniProt Q9NWZ3)", "assay": "KINOMEscan scanMAX", "type": "binding", "conditions": "2000 nM; read-out: Percent Control"}, "MST3 (STK24)": {"target": "MST3 (STK24) (Homo sapiens (Human), UniProt Q9Y6E0)", "assay": "KINOMEscan scanMAX", "type": "binding", "conditions": "2000 nM; read-out: Percent Control"}, "IKK-alpha (CHUK)": {"target": "IKK-alpha (CHUK) (Homo sapiens (Human), UniProt O15111)", "assay": "KINOMEscan scanMAX", "type": "binding", "conditions": "2000 nM; read-out: Percent Control"}, "EPHB6": {"target": "EPHB6 (Homo sapiens (Human), UniProt O15197)", "assay": "KINOMEscan scanMAX", "type": "binding", "conditions": "2000 nM; read-out: Percent Control"}, "GRK4": {"target": "GRK4 (Homo sapiens (Human), UniProt P32298)", "assay": "KINOMEscan scanMAX", "type": "binding", "conditions": "2000 nM; read-out: Percent Control"}, "HUNK": {"target": "HUNK (Homo sapiens (Human), UniProt P57058)", "assay": "KINOMEscan scanMAX", "type": "binding", "conditions": "2000 nM; read-out: Percent Control"}, "CDK4-cyclinD3": {"target": "CDK4-cyclinD3 (Homo sapiens (Human), UniProt P11802)", "sequence (P11802 whole entry)": "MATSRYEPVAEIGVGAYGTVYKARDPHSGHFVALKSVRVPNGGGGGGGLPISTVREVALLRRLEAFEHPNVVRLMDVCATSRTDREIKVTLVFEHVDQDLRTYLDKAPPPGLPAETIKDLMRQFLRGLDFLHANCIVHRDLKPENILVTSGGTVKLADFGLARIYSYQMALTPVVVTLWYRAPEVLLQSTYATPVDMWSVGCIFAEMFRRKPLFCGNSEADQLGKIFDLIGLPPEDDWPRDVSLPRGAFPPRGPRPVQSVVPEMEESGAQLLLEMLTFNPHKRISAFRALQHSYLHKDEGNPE", "sequence (P30281 whole entry partner)": "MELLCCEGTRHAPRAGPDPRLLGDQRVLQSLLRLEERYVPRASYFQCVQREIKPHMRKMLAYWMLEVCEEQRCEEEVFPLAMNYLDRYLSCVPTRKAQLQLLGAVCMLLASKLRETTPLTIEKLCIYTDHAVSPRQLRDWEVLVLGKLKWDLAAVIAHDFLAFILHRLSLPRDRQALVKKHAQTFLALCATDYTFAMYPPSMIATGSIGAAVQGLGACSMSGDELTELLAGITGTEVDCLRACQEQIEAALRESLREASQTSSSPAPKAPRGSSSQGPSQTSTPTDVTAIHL", "assay": "KINOMEscan scanMAX", "type": "binding", "conditions": "2000 nM; read-out: Percent Control"}, "JNK2 (MAPK9)": {"target": "JNK2 (MAPK9) (Homo sapiens (Human), UniProt P45984)", "assay": "KINOMEscan scanMAX", "type": "binding", "conditions": "2000 nM; read-out: Percent Control"}, "[2]": {"target": "JAK1(JH1domain-catalytic) (Homo sapiens (Human), UniProt P23458)", "assay": "KINOMEscan scanMAX", "type": "binding", "conditions": "2000 nM; read-out: Percent Control"}, "[3]": {"target": "ABL1(F317L)-phosphorylated (Homo sapiens (Human), UniProt P00519, F317L)", "assay": "KINOMEscan scanMAX", "type": "binding", "conditions": "2000 nM; read-out: Percent Control"}, "DYRK1A": {"target": "DYRK1A (Homo sapiens (Human), UniProt Q13627)", "assay": "KINOMEscan scanMAX", "type": "binding", "conditions": "2000 nM; read-out: Percent Control"}, "GRK2 (ADRBK1)": {"target": "GRK2 (ADRBK1) (Homo sapiens (Human), UniProt P25098)", "assay": "KINOMEscan scanMAX", "type": "binding", "conditions": "2000 nM; read-out: Percent Control"}, "PRKCI": {"target": "PRKCI (Homo sapiens (Human), UniProt P41743)", "assay": "KINOMEscan scanMAX", "type": "binding", "conditions": "2000 nM; read-out: Percent Control"}, "HASPIN": {"target": "HASPIN (Homo sapiens (Human), UniProt Q8TF76)", "assay": "DiscoverX Kd assay"}, "TNK2": {"target": "TNK2 (Homo sapiens (Human), UniProt Q07912)", "assay": "KINOMEscan scanMAX", "type": "binding", "conditions": "2000 nM; read-out: Percent Control"}, "KIT(V559D, T670I)": {"target": "KIT(V559D, T670I) (Homo sapiens (Human), UniProt P10721, T670I/V559D)", "sequence (P10721 26-976 V559D/T670I)": "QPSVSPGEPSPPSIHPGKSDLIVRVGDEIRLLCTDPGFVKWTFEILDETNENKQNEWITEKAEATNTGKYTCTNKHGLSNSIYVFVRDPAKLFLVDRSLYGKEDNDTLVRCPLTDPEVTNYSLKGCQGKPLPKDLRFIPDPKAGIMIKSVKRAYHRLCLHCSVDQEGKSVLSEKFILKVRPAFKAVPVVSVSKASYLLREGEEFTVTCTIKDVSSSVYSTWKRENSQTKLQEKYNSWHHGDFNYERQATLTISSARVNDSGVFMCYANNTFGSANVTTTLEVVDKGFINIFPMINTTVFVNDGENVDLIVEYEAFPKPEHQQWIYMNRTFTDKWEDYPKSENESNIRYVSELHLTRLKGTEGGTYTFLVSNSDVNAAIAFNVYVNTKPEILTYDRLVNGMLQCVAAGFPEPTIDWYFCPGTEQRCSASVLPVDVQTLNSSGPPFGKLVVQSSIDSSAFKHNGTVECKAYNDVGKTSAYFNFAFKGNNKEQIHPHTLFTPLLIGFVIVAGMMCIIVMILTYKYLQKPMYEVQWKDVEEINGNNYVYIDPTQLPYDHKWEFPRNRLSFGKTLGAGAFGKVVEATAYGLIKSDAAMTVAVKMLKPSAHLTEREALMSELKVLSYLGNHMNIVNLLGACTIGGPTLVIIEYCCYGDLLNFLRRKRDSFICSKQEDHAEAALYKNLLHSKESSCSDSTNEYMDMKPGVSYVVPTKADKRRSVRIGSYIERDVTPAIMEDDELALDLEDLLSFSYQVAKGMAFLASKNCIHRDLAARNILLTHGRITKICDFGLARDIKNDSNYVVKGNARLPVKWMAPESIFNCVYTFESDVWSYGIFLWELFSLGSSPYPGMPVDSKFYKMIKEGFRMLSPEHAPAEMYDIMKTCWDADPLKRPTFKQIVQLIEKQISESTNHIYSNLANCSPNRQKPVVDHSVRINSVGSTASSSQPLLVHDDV", "assay": "KINOMEscan scanMAX", "type": "binding", "conditions": "2000 nM; read-out: Percent Control"}, "GRK7": {"target": "GRK7 (Homo sapiens (Human), UniProt Q8WTQ7)", "assay": "KINOMEscan scanMAX", "type": "binding", "conditions": "2000 nM; read-out: Percent Control"}, "CTK (MATK)": {"target": "CTK (MATK) (Homo sapiens (Human), UniProt P42679)", "assay": "KINOMEscan scanMAX", "type": "binding", "conditions": "2000 nM; read-out: Percent Control"}, "FGR": {"target": "FGR (Homo sapiens (Human), UniProt P09769)", "assay": "KINOMEscan scanMAX", "type": "binding", "conditions": "2000 nM; read-out: Percent Control"}, "PAK2": {"target": "PAK2 (Homo sapiens (Human), UniProt Q13177)", "assay": "KINOMEscan scanMAX", "type": "binding", "conditions": "2000 nM; read-out: Percent Control"}, "BRK (PTK6)": {"target": "BRK (PTK6) (Homo sapiens (Human), UniProt Q13882)", "sequence (Q13882 whole entry)": "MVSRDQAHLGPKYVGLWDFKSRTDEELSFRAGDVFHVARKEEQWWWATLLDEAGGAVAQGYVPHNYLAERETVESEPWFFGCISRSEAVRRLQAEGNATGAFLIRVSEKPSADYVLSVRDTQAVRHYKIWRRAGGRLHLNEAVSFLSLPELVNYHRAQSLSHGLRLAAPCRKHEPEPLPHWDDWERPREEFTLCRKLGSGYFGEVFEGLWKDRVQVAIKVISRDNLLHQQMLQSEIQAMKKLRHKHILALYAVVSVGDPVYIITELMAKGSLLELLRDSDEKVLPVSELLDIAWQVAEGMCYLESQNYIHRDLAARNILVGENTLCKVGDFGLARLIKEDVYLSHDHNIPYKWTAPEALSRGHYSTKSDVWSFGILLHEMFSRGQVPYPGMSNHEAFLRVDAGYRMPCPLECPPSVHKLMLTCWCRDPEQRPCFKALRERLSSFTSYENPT", "assay": "KINOMEscan scanMAX", "type": "binding", "conditions": "2000 nM; read-out: Percent Control"}, "MRCKB (CDC42BPB)": {"target": "MRCKB (CDC42BPB) (Homo sapiens (Human), UniProt Q9Y5S2)", "assay": "KINOMEscan scanMAX", "type": "binding", "conditions": "2000 nM; read-out: Percent Control"}, "MEK3 (MAP2K3)": {"target": "MEK3 (MAP2K3) (Homo sapiens (Human), UniProt P46734)", "assay": "KINOMEscan scanMAX", "type": "binding", "conditions": "2000 nM; read-out: Percent Control"}, "CAMK2G": {"target": "CAMK2G (Homo sapiens (Human), UniProt Q13555)", "assay": "KINOMEscan scanMAX", "type": "binding", "conditions": "2000 nM; read-out: Percent Control"}, "[4]": {"target": "ABL1(F317L)-nonphosphorylated (Homo sapiens (Human), UniProt P00519, F317L)", "assay": "KINOMEscan scanMAX", "type": "binding", "conditions": "2000 nM; read-out: Percent Control"}, "ERBB4": {"target": "ERBB4 (Homo sapiens (Human), UniProt Q15303)", "assay": "KINOMEscan scanMAX", "type": "binding", "conditions": "2000 nM; read-out: Percent Control"}, "ASK2 (MAP3K6)": {"target": "ASK2 (MAP3K6) (Homo sapiens (Human), UniProt O95382)", "assay": "KINOMEscan scanMAX", "type": "binding", "conditions": "2000 nM; read-out: Percent Control"}, "ASK1 (MAP3K5)": {"target": "ASK1 (MAP3K5) (Homo sapiens (Human), UniProt Q99683)", "assay": "KINOMEscan scanMAX", "type": "binding", "conditions": "2000 nM; read-out: Percent Control"}, "MYO3B": {"target": "MYO3B (Homo sapiens (Human), UniProt Q8WXR4)", "assay": "KINOMEscan scanMAX", "type": "binding", "conditions": "2000 nM; read-out: Percent Control"}}}
{"compound": "CN1CCN(C(=O)c2ccc3cc(CCNc4ccnc5ccc(C#N)cc45)ccc3c2)CC1", "note": "[compound 6148, 4-((2-(6-(4-methylpiperazine-1-carbonyl)naphthalen-2-yl)ethyl)amino)quinoline-6-carbonitrile]", "values": [{"measurement": "remaining binding at 2 µM", "setting": "TAOK2", "result": 77, "unit": "%"}, {"measurement": "remaining binding at 2 µM", "setting": "KIT-autoinhibited", "result": 88, "unit": "%"}, {"measurement": "remaining binding at 2 µM", "setting": "[1]", "result": 100, "unit": "%"}, {"measurement": "remaining binding at 2 µM", "setting": "MARK4", "result": 78, "unit": "%"}, {"measurement": "remaining binding at 2 µM", "setting": "MKNK1", "result": 72, "unit": "%"}, {"measurement": "remaining binding at 2 µM", "setting": "MEK1 (MAP2K1)", "result": 59, "unit": "%"}, {"measurement": "remaining binding at 2 µM", "setting": "BMPR2", "result": 66, "unit": "%"}, {"measurement": "remaining binding at 2 µM", "setting": "PAK3", "result": 98, "unit": "%"}, {"measurement": "remaining binding at 2 µM", "setting": "MYO3A", "result": 100, "unit": "%"}, {"measurement": "remaining binding at 2 µM", "setting": "WEE2", "result": 95, "unit": "%"}, {"measurement": "remaining binding at 2 µM", "setting": "LYN", "result": 88, "unit": "%"}, {"measurement": "remaining binding at 2 µM", "setting": "IRAK4", "result": 67, "unit": "%"}, {"measurement": "remaining binding at 2 µM", "setting": "MST3 (STK24)", "result": 100, "unit": "%"}, {"measurement": "remaining binding at 2 µM", "setting": "IKK-alpha (CHUK)", "result": 76, "unit": "%"}, {"measurement": "remaining binding at 2 µM", "setting": "EPHB6", "result": 86, "unit": "%"}, {"measurement": "remaining binding at 2 µM", "setting": "GRK4", "result": 100, "unit": "%"}, {"measurement": "remaining binding at 2 µM", "setting": "HUNK", "result": 74, "unit": "%"}, {"measurement": "remaining binding at 2 µM", "setting": "CDK4-cyclinD3", "result": 80, "unit": "%"}, {"measurement": "remaining binding at 2 µM", "setting": "JNK2 (MAPK9)", "result": 67, "unit": "%"}, {"measurement": "remaining binding at 2 µM", "setting": "[2]", "result": 94, "unit": "%"}, {"measurement": "remaining binding at 2 µM", "setting": "[3]", "result": 74, "unit": "%"}, {"measurement": "remaining binding at 2 µM", "setting": "DYRK1A", "result": 63, "unit": "%"}, {"measurement": "remaining binding at 2 µM", "setting": "GRK2 (ADRBK1)", "result": 63, "unit": "%"}, {"measurement": "remaining binding at 2 µM", "setting": "PRKCI", "result": 89, "unit": "%"}, {"measurement": "Kd", "setting": "HASPIN", "result": 1000, "unit": "nM"}, {"measurement": "remaining binding at 2 µM", "setting": "TNK2", "result": 94, "unit": "%"}, {"measurement": "remaining binding at 2 µM", "setting": "KIT(V559D, T670I)", "result": 90, "unit": "%"}, {"measurement": "remaining binding at 2 µM", "setting": "GRK7", "result": 87, "unit": "%"}, {"measurement": "remaining binding at 2 µM", "setting": "CTK (MATK)", "result": 56, "unit": "%"}, {"measurement": "remaining binding at 2 µM", "setting": "FGR", "result": 90, "unit": "%"}, {"measurement": "remaining binding at 2 µM", "setting": "PAK2", "result": 84, "unit": "%"}, {"measurement": "remaining binding at 2 µM", "setting": "BRK (PTK6)", "result": 97, "unit": "%"}, {"measurement": "remaining binding at 2 µM", "setting": "MRCKB (CDC42BPB)", "result": 100, "unit": "%"}, {"measurement": "remaining binding at 2 µM", "setting": "MEK3 (MAP2K3)", "result": 87, "unit": "%"}, {"measurement": "remaining binding at 2 µM", "setting": "CAMK2G", "result": 100, "unit": "%"}, {"measurement": "remaining binding at 2 µM", "setting": "[4]", "result": 93, "unit": "%"}, {"measurement": "remaining binding at 2 µM", "setting": "ERBB4", "result": 95, "unit": "%"}, {"measurement": "remaining binding at 2 µM", "setting": "ASK2 (MAP3K6)", "result": 79, "unit": "%"}, {"measurement": "remaining binding at 2 µM", "setting": "ASK1 (MAP3K5)", "result": 91, "unit": "%"}, {"measurement": "remaining binding at 2 µM", "setting": "MYO3B", "result": 31, "unit": "%"}]}
